Experimental data taken from PMC9506044, “Identification of Protosappanoside D from Caesalpinia decapetala and Evaluation of Its Pharmacokinetic, Metabolism and Pharmacological Activity” (Molecules, 2022).
“Also recorded” adds a separate entry of the source. Where two headings read alike, the source gives them in different places.

Columns and labels:
[1] = Metabolites identification in rat plasma (UHPLC/Q Exactive Plus MS); type: in vivo, Sprague-Dawley rats; conditions: PTD 27.3 mg/kg by gavage twice daily for 3 d, 2 h after last administration
Protocol: To investigate the PTD metabolites, Sprague-Dawley rats were randomly divided into two groups with six rats in each group. PTD was continuously administered by gavage twice daily for 3 d at a dose of 27.3 mg/kg. Blood was collected from the rat femoral artery 2 h after the last administration, centrifuged at 6000 rpm at 4 °C for 6 min, and 100 μL of plasma was separated and frozen at −20 °C until analysis.
Qualitative analysis of metabolites was conducted on a Vanquish horizon (Thermo Scientific, Waltham, MA, USA) and combined with a Q Exactive Plus Orbitrap MS (QE Plus, Thermo Scientific, USA) system. The separation of PTD and its metabolites was achieved on a Hypersil gold column (2.1 × 150 mm, i.d., 1.9 μm). The mobile phase consisted of water containing 0.1% formic acid (B) and acetonitrile containing 0.1% formic acid (A). The gradient elution program was set as follows: 0–2 min, 5% A; 2–3 min, 5~25% A; 3–6 min, 25~40% A; 6–13 min, 40~95% A; 13–14 min, 95~95% A; 14–15 min, 95~5% A; 15–18 min, 5~5% A; flow rate, 0.3 mL/min. The MS unit parameters were set as follows: the range of data acquisition was 150–1000 m/z, electrospray voltage was 2.5 kV(−), 3.5 kV(+), solvent removal gas flow rate was 8 L/min, and desolvent gas temperature was 320 °C. Acquisition and processing were conducted using the Xcalibur 4.2 software (Thermo Fisher Scientific, USA) and Compound Discoverer 3.2 (Thermo, USA).
A 600 μL aliquot of each plasma sample was transferred into a 5 mL centrifuge tube, 300 μL of 2% formic acid solution and 2.4 mL of methanol was added before vortexing for 2 min. This was followed by sonication in an ultrasonic machine for 10 min, and centrifugation at 13,225× g for 10 min. The supernatant was then placed in a centrifuge tube and evaporated to dryness under a stream of nitrogen at 37 °C. The residues were dissolved in 200 μL of 50% methanol and centrifuged at 13,225× g for 10 min, and 1 μL of the solution was injected into the QE system.

[2] = Stability of the analytes in rat plasma under various storage conditions; type: in vitro ADME
Protocol: The stability of analytes in rat plasma was assessed using QC samples at low, medium and high concentrations (n = 5 for each concentration level) under three conditions: (1) at room temperature for 24 h; (2) refrigerated at 4 °C for 24 h; and (3) three freeze-thaw cycles.

[3] = Pharmacokinetic study in rats after oral and intravenous administration of PTD (UPLC-MS/MS, plasma); type: in vivo; conditions: Sprague-Dawley; for AUC(0-inf) / AUC(0-t) / Cmax / MRT last / MRT inf / half-life / Tmax: rat plasma; for MRT last: read-out: MRT(0–t); for MRT inf: read-out: MRT(0–∞); for half-life: read-out: t1/2z (converted)
Protocol: Specific pathogen-free Sprague-Dawley rats (230 ± 10 g) were purchased from Changsha Tianqin Biotechnology Co., Ltd. (Changsha, China; certificate no. SCXK (Xiang) 2014-0010). Before starting the experiments, the rats were allowed one week of acclimatization in the animal quarters under air conditioning (25 ± 1 °C) and an automatically controlled photoperiod of 12 h of light daily. They were fed with standard rodent chow and tap water ad libitum. Rats were fasted for 12 h before the start of the experiment but were free to drink water. All experiments were approved by the Animal Ethics Committee of Guizhou Medical University and conducted in accordance with the guidelines of the Committee on the Care and Use of Laboratory Animals in China.
For the pharmacokinetic study, 12 rats were randomly divided into two groups, with 6 rats in each group. In the oral administration group, PTD was intragastrically administered to the rats at a dose of 27.3 mg/kg. For intravenous administration, PTD was injected at a dose of 9.1 mg/kg via the tail vein. Blood samples (0.3 mL) were collected directly from the caudal vein using anticoagulant centrifugal tubes at 0.083, 0.167, 0.33, 0.5, 0.75, 1, 1.5, 2, 4, 6, 9, 12 and 24 h after intravenous and oral administration, respectively. The blood sample was centrifuged at 6000 rpm for 6 min, and the supernatant plasma was transferred into a new clean tube and stored at −80 °C prior to further use.
The UPLC-MS/MS system consisted of an ACQUITY I-Class UPLC system and an XEVO TQ-S triple-quadrupole tandem mass spectrometer (Waters Corp., Milford, MA, USA) equipped with an ESI source. Chromatographic separation was performed using a UPLC BEN C18 column (2.1 × 50 mm, […]; Waters Corp., Milford, MA, USA) at 40 °C. The mobile phase consisted of water containing 0.2% formic acid (B) and acetonitrile containing 0.2% formic acid (A) delivered at 0.3 mL/min as a gradient as follows: 0–0.5 min, 10% A; 0.5–3 min, 90% A; 3–4 min, 90% A; 4–4.5 min, 10% A; 4.5–5 min, 10% A. Waters XEVO TQ-S triple-quadrupole mass spectrometer equipped with an ESI source was used for the mass analysis and detection. The main working parameters were set as follows: source temperature, 120 °C; desolvation temperature, 350 °C; and nebuliser gas (N2), 650 L/h. The scan time for all analytes was set at 0.2 s and acquisition and processing were conducted on a Micromass Masslynx4.1.
A 100 μL aliquot of each plasma sample was transferred into a 1.5 mL centrifuge tube, and 50 μL of 2% formic acid solution was added before vortexing for 30 s. Subsequently, the internal standard (IS) (50 μL of 20 ng/mL puerarin) and 400 μL of methanol were added and vortexed for 1 min. For subsequent treatment methods were the same as mentioned in the above section (4.7.1); finally, 1 μL of the solution was injected into the UPLC-MS/MS system.
Compound discoverer 3.2 was used for the analysis of metabolites of PTD; WinNonlin was used for the analysis of pharmacokinetic parameters, and Graphpad 8.2 was used for the illustrations. Data are expressed as mean ± SD. Statistical analysis was performed using the Statistical Product and Service Solutions software package (SPSS 22.0, SPSS Inc., Chicago, IL, USA). The results were analyzed using one-way ANOVA and bioavailability (F) was calculated according to the equation reported in He et al..

[4] = tested on: LPS-stimulated RAW264.7 cells; assay: Secretion of TNF-α, IL-1β and IL-6 by LPS-induced RAW264.7 cells (ELISA); type: cell-based; conditions: 200 μmol/L, LPS 1 μg/mL, 24 h, compared to the model group
Protocol: (§1) RAW264.7 cells, obtained from American Type Culture Collection (ATCC, Manassas, VA, USA), were cultured in Dulbecco’s modified Eagle’s medium (DMEM) (Life Technologies, Grand Island, NY, USA) supplemented with 10% fetal bovine serum (FBS) and 1% penicillin-streptomycin (Grand Island, NY, USA). The cultures were incubated at 37 °C in a humidified atmosphere containing 5% CO2.
RAW264.7 cells (1 × 10^5 cells/well in a 96-well plate) were treated with PTD, PTB (200 μmol/L) and stimulated by LPS (1 μg/mL) for 24 h. As a positive control, the impacts of Dex on LPS-induced RAW264.7 cells were also determined parallelly. The supernatants were then collected, and the accumulated NO level was determined using Griess reagent. The concentrations of TNF-α, IL-6 and IL-1β in conditioned media were measured using enzyme-linked immunosorbent assay (ELISA) according to the supplier’s instructions.

RAW264.7 cells = assay: MTS cell viability assay on RAW264.7 cells; type: cell-based; conditions: 24 h treatment
Protocol: as §1
Cell viability was determined using the MTS cell viability assay kit. RAW264.7 cells were cultured at a density of 1 × 10^5 cells per well in 96-well plates by the treatment with various concentrations of PTD and PTB, respectively. After 24 h, 5 µL MTS was added to each well and incubated for 3 h. The plates were then read at 490 nm using a microplate reader.

[5] = po, intragastric administration of PTD 27.3 mg/kg
[6] = rat, plasma, po, 27.3 mg/kg, intragastric administration of PTD 27.3 mg/kg
[7] = intravenous administration of PTD 9.1 mg/kg

Row | SMILES | Identification (metabolic pathway from PTD) [1] | AUC(0-inf) [3, 5] [ng·h/mL] | AUC(0-t) [3, 5] [ng·h/mL] | Cmax [3, 5] [ng/mL] | MRT last [3, 5] [h] | MRT inf [3, 5] [h] | half-life [3, 5] [h] | Tmax [3, 6] [h] | AUC(0-inf) [3, 7] [ng·h/mL] | AUC(0-t) [3, 7] [ng·h/mL] | MRT last [3, 7] [h] | MRT inf [3, 7] [h] | half-life [3, 7] [h] | secretion of IL-1β [4] | secretion of IL-6 [4] | secretion of TNF-α [4] | concentration with no cytotoxicity to RAW264.7 cells (RAW264.7 cells) | also measured
1 | COc1ccc2c(c1)OC(CO)=Cc1cc(O)c(O)cc1-2 [M2] | Dealkylation, Dehydration | – | – | – | – | – | – | – | – | – | – | – | – | – | – | – | – | –
2 | COC1=CC=C(c2cc(O)c(O)cc2C#CC=O)C(=O)C1 [M3] | Dealkylation, Dehydration, Desaturation | – | – | – | – | – | – | – | – | – | – | – | – | – | – | – | – | –
3 | COC1(C(=O)O)COc2cc(O[C@@H]3O[C@H](CO)[C@@H](O)[C@H](O)[C@H]3O)ccc2-c2cc(O)c(O)cc2C1 (stereo partly shown) [M4] | Desaturation, Oxidation, Methylation | – | – | – | – | – | – | – | – | – | – | – | – | – | – | – | – | –
4 | OCC1(O)COc2cc(O)ccc2-c2cc(O)c(O)cc2C1 (stereo not shown) [PTB, protosappanin B, reference compound] | desugarization | 204 ± 43.9 | 179 ± 45 | 31.1 ± 10.5 | 7.41 ± 0.77 | 11.1 ± 2.32 | 7.79 ± 1.59 | 1.42 ± 0.49 | 230 ± 71.9 | 202 ± 59.5 | 6.45 ± 2.15 | 10.5 ± 3.88 | 6.78 ± 2.69 | significantly reduced; also recorded: significantly downregulated | significantly reduced; also recorded: significantly downregulated | significantly reduced; also recorded: significantly downregulated | below 300 μmol/L | Measured Concentration (Mean ± SD) ([2]; 4 °C for 24 h, nominal 2.51 ng/mL): 2.32 ± 0.11 ng/mL; Measured Concentration (Mean ± SD) ([2]; 4 °C for 24 h, nominal 20.08 ng/mL): 24.62 ± 1.12 ng/mL; Measured Concentration (Mean ± SD) ([2]; 4 °C for 24 h, nominal 251 ng/mL): 223.94 ± 15.73 ng/mL; Measured Concentration (Mean ± SD) ([2]; Room temperature for 24 h, nominal 2.51 ng/mL): 2.17 ± 0.13 ng/mL; Measured Concentration (Mean ± SD) ([2]; Room temperature for 24 h, nominal 20.08 ng/mL): 21.81 ± 1.46 ng/mL; Measured Concentration (Mean ± SD) ([2]; Room temperature for 24 h, nominal 251 ng/mL): 244.31 ± 8.62 ng/mL; Measured Concentration (Mean ± SD) ([2]; three freeze-thaw cycles, nominal 2.51 ng/mL): 2.68 ± 0.03 ng/mL; Measured Concentration (Mean ± SD) ([2]; three freeze-thaw cycles, nominal 20.08 ng/mL): 19.43 ± 1.08 ng/mL; Measured Concentration (Mean ± SD) ([2]; three freeze-thaw cycles, nominal 251 ng/mL): 259.84 ± 23.13 ng/mL
5 | OCC1OC(Oc2ccc3c(c2)OCC(O)(CO)Cc2cc(O)c(O)cc2-3)C(O)C(O)C1O [PTD, protosappanin B-3-O-β-D-glucoside] | – | 405 ± 224 | 382 ± 211 | 250 ± 176 | 3.06 ± 0.63 | 4.15 ± 1.09 | 3.47 ± 0.78 | ~0.49 | 19700 | 19400 | 1.8 ± 0.5 | 2.4 ± 0.83 | 3.65 ± 1.26 | downregulate; also recorded: significantly reduced; also recorded: significantly downregulated | downregulate; also recorded: significantly reduced; also recorded: significantly downregulated | downregulate; also recorded: significantly reduced; also recorded: significantly downregulated | below 200 μmol/L | Measured Concentration (Mean ± SD) ([2]; 4 °C for 24 h, nominal 5.01 ng/mL): 4.96 ± 0.65 ng/mL; Measured Concentration (Mean ± SD) ([2]; 4 °C for 24 h, nominal 250.5 ng/mL): 236.32 ± 13.98 ng/mL; Measured Concentration (Mean ± SD) ([2]; 4 °C for 24 h, nominal 15,030 ng/mL): 15,122.74 ± 959.18 ng/mL; Measured Concentration (Mean ± SD) ([2]; Room temperature for 24 h, nominal 5.01 ng/mL): 5.61 ± 0.32 ng/mL; Measured Concentration (Mean ± SD) ([2]; Room temperature for 24 h, nominal 250.5 ng/mL): 241.97 ± 8.73 ng/mL; Measured Concentration (Mean ± SD) ([2]; Room temperature for 24 h, nominal 15,030 ng/mL): 15,135.44 ± 1324.59 ng/mL; Measured Concentration (Mean ± SD) ([2]; three freeze-thaw cycles, nominal 5.01 ng/mL): 5.23 ± 0.58 ng/mL; Measured Concentration (Mean ± SD) ([2]; three freeze-thaw cycles, nominal 250.5 ng/mL): 260.48 ± 17.36 ng/mL; Measured Concentration (Mean ± SD) ([2]; three freeze-thaw cycles, nominal 15,030 ng/mL): 14,844.73 ± 346.61 ng/mL; bioavailability ([3]; rat, plasma, oral, 27.3 mg/kg, rat, oral 27.3 mg/kg vs intravenous 9.1 mg/kg): 0.65%
